The source made the active and inactive calls.
Assays:
[1] = biological target: Homeodomain-interacting protein kinase 4 (Homo sapiens, UniProt Q8NE63); assay type: functional
[2] = biological target: Protein kinase C gamma type (Homo sapiens, UniProt P05129); assay type: functional
[3] = biological target: Serine/threonine-protein kinase PLK4 (Homo sapiens, UniProt O00444); assay type: functional;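 further: PLK4 measured as one member of a kinome-wide kinase profiling panel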
[4] = biological target: Fibroblast growth factor receptor 3 (Homo sapiens, UniProt P22607); assay type: functional
Sequence of Fibroblast growth factor receptor 3 (P22607 whole entry): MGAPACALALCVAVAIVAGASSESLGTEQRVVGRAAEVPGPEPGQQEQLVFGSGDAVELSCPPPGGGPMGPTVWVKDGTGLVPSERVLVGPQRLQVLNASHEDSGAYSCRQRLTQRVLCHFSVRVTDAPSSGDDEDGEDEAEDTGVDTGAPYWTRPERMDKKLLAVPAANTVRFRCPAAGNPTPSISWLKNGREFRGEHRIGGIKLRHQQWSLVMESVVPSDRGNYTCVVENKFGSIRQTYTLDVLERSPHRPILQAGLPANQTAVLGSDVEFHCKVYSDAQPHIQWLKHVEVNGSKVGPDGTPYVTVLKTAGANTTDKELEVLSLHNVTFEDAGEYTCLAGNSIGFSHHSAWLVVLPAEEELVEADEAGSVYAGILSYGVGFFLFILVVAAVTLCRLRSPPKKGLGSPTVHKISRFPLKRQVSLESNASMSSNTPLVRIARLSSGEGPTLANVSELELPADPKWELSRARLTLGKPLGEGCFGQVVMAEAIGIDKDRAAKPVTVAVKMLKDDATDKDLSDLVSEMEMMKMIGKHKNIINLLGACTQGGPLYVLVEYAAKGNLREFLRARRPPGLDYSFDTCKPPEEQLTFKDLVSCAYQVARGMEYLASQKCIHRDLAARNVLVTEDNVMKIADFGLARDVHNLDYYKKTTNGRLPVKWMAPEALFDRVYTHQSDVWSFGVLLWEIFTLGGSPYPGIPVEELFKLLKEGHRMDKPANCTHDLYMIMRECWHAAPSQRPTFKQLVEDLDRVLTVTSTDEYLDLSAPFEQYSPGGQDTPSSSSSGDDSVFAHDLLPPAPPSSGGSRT

[5] = biological target: Ras and Rab interactor 1/Tyrosine-protein kinase ABL1 (Homo sapiens, UniProt P00519+Q13671); assay type: functional;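 further: biochemical TR-FRET dose-response test measuring inhibition of binding between Rin1 and Abl proteins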
Sequence of Ras and Rab interactor 1/Tyrosine-protein kinase ABL1 (P00519 whole entry): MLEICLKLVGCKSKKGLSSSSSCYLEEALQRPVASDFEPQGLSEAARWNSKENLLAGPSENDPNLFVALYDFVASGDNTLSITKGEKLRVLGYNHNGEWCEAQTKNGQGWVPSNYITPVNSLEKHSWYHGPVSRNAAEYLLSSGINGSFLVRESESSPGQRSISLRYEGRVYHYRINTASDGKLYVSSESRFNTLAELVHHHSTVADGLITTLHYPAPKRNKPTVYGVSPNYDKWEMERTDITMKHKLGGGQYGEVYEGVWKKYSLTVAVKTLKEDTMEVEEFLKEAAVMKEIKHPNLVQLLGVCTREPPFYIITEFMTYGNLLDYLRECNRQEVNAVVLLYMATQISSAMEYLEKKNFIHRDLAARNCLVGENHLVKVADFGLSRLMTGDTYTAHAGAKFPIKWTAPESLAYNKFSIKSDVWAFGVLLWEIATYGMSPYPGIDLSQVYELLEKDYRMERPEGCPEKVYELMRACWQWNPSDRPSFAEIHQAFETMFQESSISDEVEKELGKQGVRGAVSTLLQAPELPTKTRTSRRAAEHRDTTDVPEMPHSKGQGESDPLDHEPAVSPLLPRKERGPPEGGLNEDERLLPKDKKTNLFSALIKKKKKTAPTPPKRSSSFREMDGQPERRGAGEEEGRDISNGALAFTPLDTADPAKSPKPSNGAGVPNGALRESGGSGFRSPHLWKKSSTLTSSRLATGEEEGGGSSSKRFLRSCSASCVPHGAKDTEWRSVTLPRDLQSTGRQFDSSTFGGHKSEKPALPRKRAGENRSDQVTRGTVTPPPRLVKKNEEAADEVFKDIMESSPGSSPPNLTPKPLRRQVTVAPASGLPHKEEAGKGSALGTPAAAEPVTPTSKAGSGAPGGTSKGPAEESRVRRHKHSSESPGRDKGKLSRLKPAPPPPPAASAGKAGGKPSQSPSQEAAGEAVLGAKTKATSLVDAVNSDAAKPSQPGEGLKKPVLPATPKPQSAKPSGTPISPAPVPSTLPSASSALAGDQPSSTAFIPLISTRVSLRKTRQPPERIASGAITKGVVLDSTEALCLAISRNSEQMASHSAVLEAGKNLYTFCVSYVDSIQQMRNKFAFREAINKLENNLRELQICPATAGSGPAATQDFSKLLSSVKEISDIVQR
Sequence of Ras and Rab interactor 1/Tyrosine-protein kinase ABL1 (Q13671 whole entry): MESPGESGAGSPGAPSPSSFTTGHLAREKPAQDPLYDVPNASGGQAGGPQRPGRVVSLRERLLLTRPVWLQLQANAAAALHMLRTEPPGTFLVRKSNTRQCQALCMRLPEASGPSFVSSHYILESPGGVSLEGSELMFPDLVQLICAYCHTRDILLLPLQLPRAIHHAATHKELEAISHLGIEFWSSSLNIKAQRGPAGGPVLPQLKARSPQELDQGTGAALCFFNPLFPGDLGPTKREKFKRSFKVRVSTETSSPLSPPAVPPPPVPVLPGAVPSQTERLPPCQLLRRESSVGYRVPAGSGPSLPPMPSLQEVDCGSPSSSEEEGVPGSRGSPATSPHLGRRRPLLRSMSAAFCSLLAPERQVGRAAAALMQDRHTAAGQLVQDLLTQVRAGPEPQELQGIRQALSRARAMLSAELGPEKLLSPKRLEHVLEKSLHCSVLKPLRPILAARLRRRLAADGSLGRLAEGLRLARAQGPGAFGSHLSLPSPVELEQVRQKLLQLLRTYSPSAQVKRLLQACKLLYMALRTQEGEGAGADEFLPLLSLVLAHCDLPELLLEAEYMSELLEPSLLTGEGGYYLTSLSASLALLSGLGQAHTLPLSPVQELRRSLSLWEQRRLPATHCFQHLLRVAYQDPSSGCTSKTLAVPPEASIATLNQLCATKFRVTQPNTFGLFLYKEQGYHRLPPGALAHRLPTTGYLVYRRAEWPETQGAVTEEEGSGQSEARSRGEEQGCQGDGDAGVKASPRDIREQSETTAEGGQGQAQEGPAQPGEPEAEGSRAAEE

[6] = biological target: Tyrosine-protein phosphatase non-receptor type 22 (Homo sapiens, UniProt Q9Y2R2); assay type: functional;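 further: confirmatory dose-response retesting of primary uHTS hits against LYP; potency is for inhibition of phosphatase activity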
Sequence of Tyrosine-protein phosphatase non-receptor type 22 (Q9Y2R2 whole entry): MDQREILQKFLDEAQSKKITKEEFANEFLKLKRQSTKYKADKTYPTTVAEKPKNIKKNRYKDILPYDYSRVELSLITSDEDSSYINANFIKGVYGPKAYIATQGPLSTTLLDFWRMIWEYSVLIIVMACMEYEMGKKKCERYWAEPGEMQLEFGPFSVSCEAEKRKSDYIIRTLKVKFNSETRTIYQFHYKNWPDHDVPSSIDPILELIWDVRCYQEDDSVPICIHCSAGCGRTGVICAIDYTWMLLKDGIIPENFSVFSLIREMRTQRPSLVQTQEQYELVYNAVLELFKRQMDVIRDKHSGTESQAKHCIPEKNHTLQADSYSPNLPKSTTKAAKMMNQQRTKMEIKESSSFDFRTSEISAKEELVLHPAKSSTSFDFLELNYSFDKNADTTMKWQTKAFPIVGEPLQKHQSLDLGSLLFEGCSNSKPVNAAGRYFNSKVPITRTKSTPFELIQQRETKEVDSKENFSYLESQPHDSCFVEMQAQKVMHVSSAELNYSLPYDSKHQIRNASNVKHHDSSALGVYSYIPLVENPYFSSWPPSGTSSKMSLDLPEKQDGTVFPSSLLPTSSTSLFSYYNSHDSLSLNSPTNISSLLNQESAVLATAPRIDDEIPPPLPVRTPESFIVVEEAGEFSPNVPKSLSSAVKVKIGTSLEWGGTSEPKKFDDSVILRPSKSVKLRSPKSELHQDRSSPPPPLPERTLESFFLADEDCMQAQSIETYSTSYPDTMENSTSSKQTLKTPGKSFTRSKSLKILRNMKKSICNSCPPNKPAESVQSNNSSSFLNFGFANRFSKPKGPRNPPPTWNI

[7] = biological target: T1, Protein RecA (Mycobacterium tuberculosis, UniProt P9WHJ3); experiment: GFP-RecA MOA-DTT Measured in Biochemical System Using Plate Reader - 2047-05_Inhibitor_Dose_DryPowder_Activity. [Related pubchem assays (depositor defined):AID2223]; design: species or system Mycobacterium tuberculosis H37Rv
T1 sequence (P9WHJ3 whole entry): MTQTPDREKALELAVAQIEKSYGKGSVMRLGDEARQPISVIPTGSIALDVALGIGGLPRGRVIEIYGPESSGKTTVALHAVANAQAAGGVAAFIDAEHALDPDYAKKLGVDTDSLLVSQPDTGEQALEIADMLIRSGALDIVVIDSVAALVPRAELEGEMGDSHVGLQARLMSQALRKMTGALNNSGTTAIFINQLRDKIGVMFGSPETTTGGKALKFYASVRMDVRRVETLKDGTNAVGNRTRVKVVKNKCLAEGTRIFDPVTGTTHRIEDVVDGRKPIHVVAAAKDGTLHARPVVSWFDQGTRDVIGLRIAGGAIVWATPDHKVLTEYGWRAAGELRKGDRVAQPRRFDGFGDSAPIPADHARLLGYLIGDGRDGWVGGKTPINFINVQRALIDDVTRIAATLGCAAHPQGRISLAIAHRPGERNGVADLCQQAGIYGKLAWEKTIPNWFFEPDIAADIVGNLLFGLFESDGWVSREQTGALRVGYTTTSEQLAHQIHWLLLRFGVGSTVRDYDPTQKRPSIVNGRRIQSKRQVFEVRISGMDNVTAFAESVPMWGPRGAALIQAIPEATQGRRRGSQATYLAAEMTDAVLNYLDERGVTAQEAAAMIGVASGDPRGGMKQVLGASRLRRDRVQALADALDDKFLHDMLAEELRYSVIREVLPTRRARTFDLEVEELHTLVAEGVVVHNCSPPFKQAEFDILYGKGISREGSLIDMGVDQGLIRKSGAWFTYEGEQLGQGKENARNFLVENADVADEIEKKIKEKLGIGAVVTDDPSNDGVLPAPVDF

[8] = control 3'UTR Renilla luciferase suppression, dose response, counter-screen for Shn3 inhibitor project, cell-based, Clone20-Shn3RL, cherry-picked (AID 624133); assay type: functional
[9] = non-specific cell cytotoxicity, dose response, cytotoxicity control for PAX8 inhibitor project, plate reader, dry powder samples (AID 743021); assay type: functional, cell-based
[10] = cytotoxicity toward NIH3T3 fibroblasts, dose response, counter-screen, cell-based, ATP luminescence, mouse fibroblasts (AID 2010); assay type: functional;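 further: cells exposed to compound for about 90 hours before reading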
[11] = NIH-3T3 fibroblast cytotoxicity, dose response, cytotoxicity control, cell-based, fluorescence, Alamar Blue, secondary assay (AID 2327); assay type: functional;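 further: NIH-3T3 mouse fibroblasts cultured with fluconazole at 8 µg/mL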
[12] = biological target: Dual specificity protein phosphatase 3 (Homo sapiens, UniProt P51452); experiment: VHR1 phosphatase inhibitors, primary screen, biochemical, absorbance, uHTS (AID 1654)
Sequence of Dual specificity protein phosphatase 3 (P51452 whole entry): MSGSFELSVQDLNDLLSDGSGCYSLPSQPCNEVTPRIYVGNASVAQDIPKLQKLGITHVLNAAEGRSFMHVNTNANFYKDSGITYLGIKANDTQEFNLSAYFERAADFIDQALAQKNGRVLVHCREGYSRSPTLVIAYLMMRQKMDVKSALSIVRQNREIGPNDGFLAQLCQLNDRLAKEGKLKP

[13] = biological target: T2, Cytochrome P450 1A2 (Homo sapiens, UniProt P05177);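 further: PubChem cytochrome P450 panel assay, CYP1A2 panel member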
T2 sequence (P05177 whole entry): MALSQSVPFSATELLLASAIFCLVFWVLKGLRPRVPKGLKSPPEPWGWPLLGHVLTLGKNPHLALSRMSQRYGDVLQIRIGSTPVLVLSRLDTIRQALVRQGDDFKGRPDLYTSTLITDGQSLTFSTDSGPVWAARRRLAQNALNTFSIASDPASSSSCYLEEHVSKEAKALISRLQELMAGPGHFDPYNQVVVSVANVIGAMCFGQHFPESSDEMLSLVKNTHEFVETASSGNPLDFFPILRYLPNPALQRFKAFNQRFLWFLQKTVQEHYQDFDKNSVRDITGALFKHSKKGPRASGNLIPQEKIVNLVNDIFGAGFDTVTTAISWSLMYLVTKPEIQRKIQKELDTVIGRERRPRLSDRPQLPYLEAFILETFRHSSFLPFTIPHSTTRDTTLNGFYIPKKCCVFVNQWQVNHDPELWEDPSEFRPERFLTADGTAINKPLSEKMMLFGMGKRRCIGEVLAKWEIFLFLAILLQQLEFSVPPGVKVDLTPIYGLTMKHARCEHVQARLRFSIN

Sequence of Homeodomain-interacting protein kinase 4 (Q8NE63 whole entry): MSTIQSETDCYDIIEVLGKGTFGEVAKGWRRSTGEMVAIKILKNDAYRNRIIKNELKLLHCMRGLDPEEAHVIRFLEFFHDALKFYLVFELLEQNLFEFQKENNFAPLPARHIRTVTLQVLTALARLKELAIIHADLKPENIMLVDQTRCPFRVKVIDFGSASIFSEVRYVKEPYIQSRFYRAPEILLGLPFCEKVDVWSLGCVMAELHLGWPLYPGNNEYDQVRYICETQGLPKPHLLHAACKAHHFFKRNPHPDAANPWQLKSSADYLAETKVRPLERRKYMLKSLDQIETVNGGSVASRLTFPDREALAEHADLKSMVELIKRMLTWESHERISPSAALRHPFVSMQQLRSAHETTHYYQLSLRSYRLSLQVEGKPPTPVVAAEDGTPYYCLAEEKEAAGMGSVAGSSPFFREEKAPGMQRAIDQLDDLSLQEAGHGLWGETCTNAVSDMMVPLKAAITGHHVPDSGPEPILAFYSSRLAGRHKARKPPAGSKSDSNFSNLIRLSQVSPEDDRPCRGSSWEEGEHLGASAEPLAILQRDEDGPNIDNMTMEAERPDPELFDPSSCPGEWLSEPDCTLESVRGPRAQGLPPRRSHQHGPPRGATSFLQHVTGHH

## COc1cc2c(cc1Nc1nc(Nc3cccc(F)c3C(N)=O)c3cc[nH]c3n1)N(C(=O)CN(C)C)CC2
[1]
  Ki: 6310 nM (active)
[2]
  Ki: 1000 nM (active)
[3]
  Ki: 2000 nM (active)
[4]
  Ki: > 2000 nM (inactive)

## CCn1nc(/C=C/c2ccccc2)nc2c(=O)n(C)c(=O)nc1-2
[5]
  IC50: > 73500 nM (inactive)
[6]
  IC50: 13000 nM (active)
[7]
  AC50: 65 nM (active)
[8]
  AC50: 5790 nM (active)
[9]
  AC50: 12700 nM (active)
[10]
  EC50: 1020 nM (active)
[11]
  EC50: 952 nM (inconclusive)
[12]
  IC50: 2240 nM (active)

## CC(C)c1ccc(-c2nnn(CCC(=O)O)n2)cc1
[13]
  AC50: 12600 nM (inconclusive)
